pIC50: −log10 of the molar value. Where two headings read alike, the source gives them in different places.
Assays:
[1] = target: GST-tagged K-Ras mutant / His-tagged hSOS1 (Homo sapiens, UniProt P01116); assay: HTRF assay, K-Ras mutant / SOS1 interaction; assay type: binding; settings: read-out: IC50 against mutant Kras
Text: (§1) This assay can be also used to assess a selective inhibition of a mutant Ras protein relative to a wildtype, or relative to a different mutant Ras protein. For example, the equilibrium interaction of wildtype Kras or K-Ras mutant (e.g., wildtype or a mutant thereof including those mentioned in Example 6) with SOS1 (e.g., hSOS1) can be assessed as a proxy or an indication for a subject compound's ability to bind and inhibit Ras protein. HTRF assay detects from (i) a fluorescence resonance energy transfer (FRET) donor (e.g., antiGST-Europium) that is bound to GST-tagged K-Ras mutant to (ii) a FRET acceptor (e.g., anti-6His-XL665) bound to a His-tagged hSOS1.
(§2) The assay buffer can contain ˜5 mM HEPES pH 7.4, ˜150 mM NaCl, ˜ 1 mM DTT, 0.05% BSA and 0.0025% (v/v) Igepal. A Ras working solution is prepared in an assay buffer containing typically a suitable amount of the protein construct (e.g., GST-tagged K-Ras mutant) and the FRET donor (e.g., antiGST-Eu(K) from Cisbio, France). A SOS1 working solution is prepared in an assay buffer containing suitable amount of the protein construct (e.g., His-hSOS1) and the FRET acceptor (e.g., anti-6His-XL665 from Cisbio, France). A suitable amount of the protein construct will depend on the range of activity or range of IC50 values being detected or under investigation. For detecting IC50 within a range of 500 nM, the protein constructs of the same range of molarity can be utilized.
(§3) A fixed volume of DMSO with or without test compound is transferred into a 384-well plate. Ras working solution is added to all wells of the test plate. SOS1 working solution is added to all wells except for those that are subsequently filled the inhibitor control solution. Upon incubation for about 10 minutes or longer, the fluorescence is measured with a M1000Pro plate reader (Tecan) using HTRF detection (excitation 337 nm, emission 1: 620 nm, emission 2: 665 nm). Compounds are tested in duplicates at different concentrations (for example, 10 μM, 2.5 μM, 0.63 μM, 0.16 μM, 0.04 µM, 0.01 μM test compound). The ratiometric data (i.e., emission 2 divided by emission 1) is used to calculate IC50 values against Ras using GraphPad Prism (GraphPad software). Following this general procedure, samples were tested with or without a subject compound disclosed herein including compounds exemplified in Table 1 to assess their abilities to inhibit K-Ras signaling or their respective IC50 values against a given Ras protein (e.g., a given mutant K-Ras) of interest.

wildtype Kras / hSOS1 = target: T1, wildtype Kras / hSOS1 (Homo sapiens, UniProt P01116); assay: HTRF assay, wildtype Kras / SOS1 interaction; assay type: binding; settings: read-out: IC50 against wildtype Kras
T1 construct: made in house; host or cells: E. coli BL21 (DE3)
Text: as §1, §2, §3

[2] = compound nos. 102-196, general methodology of example 5
[3] = compound nos. 201-213, general methodology of example 5

Sequence of GST-tagged K-Ras mutant / His-tagged hSOS1 (P01116 whole entry G12D, form open): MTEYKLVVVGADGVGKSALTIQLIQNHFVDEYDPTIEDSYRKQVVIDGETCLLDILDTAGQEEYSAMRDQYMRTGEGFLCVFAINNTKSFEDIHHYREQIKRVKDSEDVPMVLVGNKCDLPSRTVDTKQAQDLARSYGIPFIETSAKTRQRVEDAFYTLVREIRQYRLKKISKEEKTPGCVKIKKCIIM
T1 sequence (P01116 1-188 isoform P01116-2): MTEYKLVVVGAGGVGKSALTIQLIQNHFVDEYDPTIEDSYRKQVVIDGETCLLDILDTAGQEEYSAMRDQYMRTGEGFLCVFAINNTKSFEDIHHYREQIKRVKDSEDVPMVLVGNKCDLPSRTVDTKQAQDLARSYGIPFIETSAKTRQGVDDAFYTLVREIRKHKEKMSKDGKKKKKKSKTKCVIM

| pIC50 ([1]; compound nos. 401-703) | pIC50 (wildtype Kras / hSOS1; compound nos. 401-703) | Compound | also measured |
| --- | --- | --- | --- |
| < 6.30 | < 6.30 | Fc1c(-c2cccc3c2CCCC3)c(Cl)cc2c(N3CC4CCC(C3)N4)nc(OC[C@@]34CCCN3C[C@H](F)C4)nc12 [Compound 619, 4-(3,8-diazabicyclo[3.2.1]-octan-3-yl)-6-chloro-8-fluoro-2-(((2R,7aS)-2-fluorotetrahydro-1H-pyrrol-izin-7a(5H)-yl)methoxy)-7-(5,6,7,8-tetrahydronaph-thalen-1-yl)quinazoline] | – |
| > 6.30 | < 6.30 | Nc1nc2c(-c3c(Cl)cc4c(N5CC6CNCC6C5)nc(OC[C@@]56CCCN5C[C@H](F)C6)nc4c3F)ccc(F)c2s1 (stereo partly drawn) [Compound 569, 4-(6-chloro-8-fluoro-2-(((2R,7aS)-2-fluorotetra-hydro-1H-pyrrolizin-7a(5H)-yl)methoxy)-4-(hexahydro-pyrrolo[3,4-c]pyrrol-2(1H)-yl)quinazolin-7-yl)-7-fluoro-benzo[d]thiazol-2-amine] | – |
| < 6.30 | > 6.30 | CN(C)CC1(COc2nc(N3CC4CCC(C3)N4)c3ccc(-c4ccc(F)c5sc(N)nc45)c(F)c3n2)CC1 [Compound 428, 4-(4-(3,8-diazabicyclo-[3.2.1]-octan-3-yl)-2-((1-((dimethylamino)methyl)-cyclopropyl)methoxy)-8-fluoroquinazolin-7-yl)-7-fluorobenzo[d]thiazol-2-amine] | – |
| > 6.30 | < 6.30 | Nc1nc2c(-c3c(Cl)cc4c(N5CC6CCC(C5)N6)nc(OCC5(CN6CC[C@@H](F)C6)CC5)nc4c3F)ccc(F)c2s1 [Compound 586, 4-(4-(3,8-diazabicyclo-[3.2.1]octan-3-yl)-6-chloro-8-fluoro-2-((1-(((R)-3-fluoropyrrolidin-1-yl)meth-yl)cyclopropyl)methoxy)-quinazolin-7-yl)-7-fluoro-benzo[d]thiazol-2-amine] | – |
| < 6.30 | > 6.30 | Oc1cc(-c2c(Cl)cc3c(N4CC5CCC(C4)N5)nc(OCC45CCCC4CCC5)nc3c2F)c2ccccc2c1 (centres unmarked) [Compound 410, 4-(4-(3,8-diazabicyclo-[3.2.1]octan-3-yl)-6-chloro-8-fluoro-2-((hexahydro-pentalen-3a(1H)-yl)meth-oxy)quinazolin-7-yl)naph-thalen-2-ol] | – |
| – | – | Nc1nc2c(-c3c(Cl)cc4c(N5CCNCC(F)(F)C5)nc(OCC56CCCN5CCC6)nc4c3F)ccc(F)c2s1 [Compound 109, 4-(6-chloro-4-(6,6-difluoro-1,4-diazepan-1-yl)-8-fluoro-2-((tetrahydro-1H-pyrrol-izin-7a(5H)-yl)methoxy)-quinazolin-7-yl)-7-fluoro-benzo[d]thiazol-2-amine] | pIC50 [1, 2]: > 6.30; pIC50 (wildtype Kras / hSOS1; [2]): > 6.30 |
| < 6.30 | > 6.30 | Fc1c(Br)c(Cl)cc2c(N3CC4CCC(C3)N4)nc(OC[C@@]34CCCN3C[C@H](F)C4)nc12 [Compound 479, 4-(3,8-diazabicyclo[3.2.1]-octan-3-yl)-7-bromo-6-chloro-8-fluoro-2-(((2R,7aS)-2-fluorotetra-hydro-1H-pyrrolizin-7a(5H)-yl)methoxy)quin-azoline] | – |
| > 6.30 | < 6.30 | CC1CCCCN(c2nc(OC[C@@H]3CCCN3C)nc3c(F)c(-c4cccc5sc(N)nc45)c(Cl)cc23)C1 (stereo partly drawn) [Compound 550, 4-(6-chloro-8-fluoro-4-(3-methylazepan-1-yl)-2-(((S)-1-methylpyrrolidin-2-yl)-methoxy)quinazolin-7-yl)-benzo[d]thiazol-2-amine] | – |
| – | – | Nc1nc2c(-c3c(Cl)cc4c(N5CCOCC(N)C5)nc(OCC56CCCN5CCC6)nc4c3F)ccc(F)c2s1 (centres unmarked) [Compound 165, 4-(7-(2-amino-7-fluoro-benzo[d]thiazol-4-yl)-6-chloro-8-fluoro-2-((tetra-hydro-1H-pyrrolizin-7a(5H)-yl)methoxy)quinazolin-4-yl)-1,4-oxazepan-6-amine] | pIC50 [1, 2]: > 6.30; pIC50 (wildtype Kras / hSOS1; [2]): > 6.30 |
| < 6.30 | > 6.30 | Nc1nc2c(-c3ccc4c(N5CC6CCC(C5)N6)nc(OCC56CCCN5CCC6)nc4n3)ccc(F)c2s1 [Compound 412, 4-(4-(3,8-diazabicyclo-[3.2.1]octan-3-yl)-2-((tetra-hydro-1H-pyrrolizin-7a(5H)-yl)methoxy)pyrido[2,3-d]-pyrimidin-7-yl)-7-fluoro-benzo[d]thiazol-2-amine] | – |
| – | – | CN1CCC[C@H]1COc1nc(N2CCNCC(F)(F)C2)c2cc(Cl)c(-c3cccc4scnc34)c(F)c2n1 [Compound 122, 4-(6-chloro-4-(6,6-difluoro-1,4-diazepan-1-yl)-8-fluoro-2-(((S)-1-methylpyrrolidin-2-yl)methoxy)quinazolin-7-yl)benzo[d]thiazole] | pIC50 [1, 2]: < 6.30; pIC50 (wildtype Kras / hSOS1; [2]): < 6.30 |
| < 6.30 | < 6.30 | Nc1nc2c(-c3c(Cl)cc4c(N5CC6CCC(C5)N6)nc(OC[C@@]56CCCN5C[C@H](F)C6)nc4c3F)cccc2cc1F [Compound 665, 8-(4-(3,8-diazabicyclo-[3.2.1]octan-3-yl)-6-chloro-8-fluoro-2-(((2R,7aS)-2-fluorotetrahydro-1H-pyrrol-izin-7a(5H)-yl)methoxy)-quinazolin-7-yl)-3-fluoro-quinolin-2-amine] | – |
| – | – | CN1[C@@H]2CC[C@H]1CN(c1nc(OC[C@@]34CCCN3C[C@H](F)C4)nc3c(F)c(-c4ccc(F)c5sc(N)nc45)c(Cl)cc13)C2 [Compound 205, 4-(6-chloro-8-fluoro-2-(((2R,7aS)-2-fluorotetra-hydro-1H-pyrrolizin-7a(5H)-yl)methoxy)-4-((1R,5S)-8-methyl-3,8-diazabicyclo[3.2.1]octan-3-yl)quinazolin-7-yl)-7-fluorobenzo[d]thiazol-2-amine] | pIC50 [1, 3]: > 5.82; pIC50 (wildtype Kras / hSOS1; [3]): > 5.82 |
| > 6.30 | < 6.30 | CN1CCC[C@H]1COc1nc(N2CCCCC(O)C2)c2cc(Cl)c(-c3cccc4sc(N)nc34)c(F)c2n1 (stereo partly drawn) [Compound 506, 1-(7-(2-aminobenzo[d]thia-zol-4-yl)-6-chloro-8-fluoro-2-(((S)-1-methylpyrrolidin-2-yl)methoxy)quinazolin-4-yl)azepan-3-ol] | – |
| – | – | CN(C)CC1(COc2nc(N3C[C@H]4CC[C@@H](C3)N4)c3cc(Cl)c(-c4ccc(F)c5sc(N)nc45)c(F)c3n2)CC1 [Compound 210] | pIC50 [1, 3]: > 5.82; pIC50 (wildtype Kras / hSOS1; [3]): > 5.82 |
| – | – | Nc1nc2c(-c3c(Cl)cc4c(N5[C@@H]6CC[C@H]5CC(F)C6)nc(OC[C@@]56CCCN5C[C@H](F)C6)nc4c3F)ccc(F)c2s1 (stereo partly drawn) [Compound 304, 4-(6-chloro-8-fluoro-4-((1R,3S,5S)-3-fluoro-8-azabicyclo[3.2.1]octan-8-yl)-2-(((2R,7aS)-2-fluoro-tetrahydro-1H-pyrrolizin-7a(5H)-yl)methoxy)quin-azolin-7-yl)-7-fluorobenzo-[d]thiazol-2-amine] | pIC50 ([1]; compound nos. 301-306): > 5.82; pIC50 (wildtype Kras / hSOS1; compound nos. 301-306): > 5.82 |
| < 6.30 | – | CN1CCC[C@H]1COc1nc(N2CCCC(NC3CC3)CC2)c2cc(Cl)c(-c3cccc4sc(N)nc34)c(F)c2n1 (stereo partly drawn) [Compound 590, 4-(6-chloro-4-(4-(cycloprop-ylamino)azepan-1-yl)-8-fluoro-2-(((S)-1-methylpyr-rolidin-2-yl)methoxy)quin-azolin-7-yl)benzo[d]thiazol-2-amine] | – |
| – | < 6.30 | CN1CCC[C@H]1COc1nc(N2CCC(O)C(F)CC2)c2cc(Cl)c(-c3cccc4sc(N)nc34)c(F)c2n1 (stereo partly drawn) [Compound 675, 1-(7-(2-aminobenzo[d]-thiazol-4-yl)-6-chloro-8-fluoro-2-(((S)-1-methyl-pyrrolidin-2-yl)methoxy)-quinazolin-4-yl)-5-fluoro-azepan-4-ol] | – |
| – | – | N#CCC1CNCCN(c2nc(OCC34CCCN3CCC4)nc3c(F)c(-c4ccc(F)c5sc(N)nc45)c(Cl)cc23)C1 (centres unmarked) [Compound 188, 2-(1-(7-(2-amino-7-fluoro-benzo[d]thiazol-4-yl)-6-chloro-8-fluoro-2-((tetra-hydro-1H-pyrrolizin-7a(5H)-yl)methoxy)quin-azolin-4-yl)-1,4-diazepan-6-yl)acetonitrile] | pIC50 [1, 2]: > 6.30 |

From US20240254129A1, “HETEROCYCLIC COMPOUNDS AND USES THEREOF” (Kumquat Biosciences Inc., priority 2021, published 2024)
